Earlier results as cited in patent US20190374461A1, “Treatment apparatus and mechanisms for an infected nail” (priority 2018, published 2019).
Where “and” joins values, the source holds several entries; their conditions need not be identical. Equal entries are not always repeated. Structures can show the parent of a compound that is named as a salt. Where two headings read alike, the source gives them in different places.

Tested on: nail infections

C[C@@H](n1cnc2cc(Cl)ccc2c1=O)[C@](O)(Cn1cncn1)c1ccc(F)cc1F [Albaconazole]
side effects compared with Lamisil (in vivo, po): prone to fewer side effects than Lamisil

CCC(C)(C)c1ccc(CC(C)CN2C[C@@H](C)O[C@@H](C)C2)cc1 (some centres unmarked) [Amorolfine, amorolfine]
cure rates (topical, mild nail infections without nail matrix involvement): 40 to 55% | effectiveness against severe nail infections (topical, severe nail infections involving the nail bed): not effective

Cc1cc(C2CCCCC2)n(O)c(=O)c1 [Ciclopirox, ciclopirox]
cure rate (topical, 8% strength): about 8.5%

CN(C/C=C/C#CC(C)(C)C)Cc1cccc2ccccc12 [Lamisil, terbinafine hydrochloride]
mycological cure rate (oral treatment of nail infections): 46%

CC[C@@H]([C@H](C)O)n1ncn(-c2ccc(N3CCN(c4ccc(OC[C@@H]5CO[C@@](Cn6cncn6)(c6ccc(F)cc6F)C5)cc4)CC3)cc2)c1=O [Posaconazole]
side effects compared with Lamisil (oral treatment): prone to fewer side effects than Lamisil

OB1OCc2cc(F)ccc21 [Tavaborole, tavaborole]
complete cure, share of patients (topical, 600 patients in the study): 6%

C=C1CCN([C@H](C)[C@](O)(Cn2cncn2)c2ccc(F)cc2F)CC1 [efinaconazole]
cure rates (topical, only mild infections not involving the nail bed): 17.8% and 15.2%
